# Test results taken from patent US10004815B2, “Near-infrared quenching group” (priority 2013, dated 2018).
# Tests used:
# Assay type in all cases: physicochemical
# [1] = Absorption spectrum measurement; details: for maximum absorption wavelength: PBS (1% DMSO); for Λabs. max: 0.1% DMSO as cosolvent
# Description: The absorption spectrum of a […] PBS solution of comparative compound 2 (containing 0.1% DMSO as cosolvent) was measured.
# The maximum absorption wavelength of compound 1 was 763 nm, and the maximum absorption wavelength of compound 4 was 732 nm.
# [2] = Changes over time in the absorption spectrum in water (PBS); details: PBS solution, 0.1% DMSO as cosolvent
# [3] = Fluorescence spectrum / quantum efficiency of fluorescence (ICG in DMSO as standard); details: both water and organic solvents; excitation 760 nm
# Description: The absorption spectra and fluorescence spectra (excitation wavelength 760 nm) of […] PBS, methanol, DMF, and chloroform solutions of comparative compound 1 (each containing 0.1% DMSO as cosolvent) were measured.
compound,measurement,setting,value
"Cc1cccc(C)c1C1=C2C=C/C(=[N+]3/CCCc4cc(S(=O)(=O)O)ccc43)C=C2[Si](C)(C)c2cc(N3CCCc4cc(S(=O)(=O)O)ccc43)ccc21 [compound 4, 2,6-diMe-SO3H Tetrahydroquinoline-Si-QSY21]",maximum absorption wavelength,[1],732 nm
"COc1cccc(OC)c1C1=C2C=C/C(=[N+]3/CCc4cc(S(=O)(=O)O)ccc43)C=C2[Si](C)(C)c2cc(N3CCc4cc(S(=O)(=O)O)ccc43)ccc21 [compound 2, 2,6-diOMe-SO3H Indoline-Si-QSY21]",changes over time in absorption in water (stability in water),[2],no decrease in absorption in water was observed
"Cc1ccccc1C1=C2C=C/C(=[N+]3/CCc4cc(S(=O)(=O)O)ccc43)C=C2[Si](C)(C)c2cc(N3CCc4cc(S(=O)(=O)O)ccc43)ccc21 [comparative compound 2, 2-Me-SO3H—Si-QSY21]",change in absorption wavelength due to introduction of a sulfone group,"[1]; PBS solution, 0.1% DMSO",no change in absorption wavelength
same,changes over time in absorption in water (stability in water),[2],a gradual decrease in absorption was observed in water
"Cc1ccccc1C1=C2C=C/C(=[N+]3/CCc4ccccc43)C=C2[Si](C)(C)c2cc(N3CCc4ccccc43)ccc21 [comparative compound 1, 2-Me-Si-QSY21]",absorption spectrum reached up to,[1],up to 850 nm
same,Λabs. max,[1]; Chloroform,790 nm
same,Λabs. max,[1]; DMF,790 nm
same,Λabs. max,[1]; MeOH,779 nm
same,Λabs. max,[1]; PBS,764 nm
same,fluorescence quantum yield,[3],≤ 0.001
"Cc1cccc(C)c1C1=C2C=C/C(=[N+]3/CCc4cc(S(=O)(=O)O)ccc43)C=C2[Si](C)(C)c2cc(N3CCc4cc(S(=O)(=O)O)ccc43)ccc21 [compound 1, 2,6-diMe-SO3H Indoline-Si-QSY21]",maximum absorption wavelength,[1],763 nm
same,changes over time in absorption in water (stability in water),[2],no decrease in absorption in water was observed
